Test results as given in US20200397901A1, “PHOTORESPONSIVE SMOOTHENED LIGAND” (The University of Tokyo, priority 2018, published 2020).

Experiments:
[1] = test system: ventral cerebrum markers NKX2.1 and MASH1 in cerebral organoid; test: Immunohistostaining of cerebral organoids with anti-NKX2.1 and anti-MASH1 antibody; format: cell-based, human
Protocol: (§1) The cell line iPSC 409B2 (Cell no. HPS0076) was obtained from National University Corporation Kyoto University through RIKEN BioResource Center Cell Bank. In order to maintain the undifferentiated state, the iPS cells were cultured in an Essential 8 medium on a dish coated with vitronectin (VNT-N, Thermofisher Scientific).
(§2) A cerebral organoid was prepared according to the method described in Lancaster et al., Nat Protoc. 9: 2329-2340, 2014. Using TrypLE™ (Thermofisher Scientific), hiPSCs cultured in an E8 medium were separated into single cells, which were then reaggregated to a cell mass having a density of approximately 10,000 cells, using a […] E6 medium, in a low-adhesion 96-well round bottom plate.
(§3) To the E6 medium, FGF2 (5 ng/mL, 0 to 4 days after initiation of the culture) and a ROCK inhibitor (Thiazovivine, 1μM, 0 to 4 days after initiation of the culture) were added. The medium was exchanged with a fresh one at 2 and 4 days after initiation of the culture. At 6 days after initiation of the culture, the medium was exchanged with a neural differentiation medium (DMEM/F12, 1% N2 supplement, insulin, 1% GlutaMax supplement, 1% NEAA, 1% penicillin-streptomycin, and 1 μg/mL heparin) containing SAG, caged SAG (photoresponsive protective group-binding SAG), or caged SAG before or after UV irradiation. When caged SAG was added, the culture was irradiated with a light for 15 minutes, using a halogen lamp. At 6, 8, and 10 days after initiation of the culture, the medium was exchanged with a fresh one.
Three types of organoids cultured under individual conditions were recovered at 11 days after initiation of the culture, and were then subjected to qPCR. […]
Thereafter, the organoid was cut into a frozen section with a size of […] and was recovered on a slide glass. […] A fluorescent image was obtained using an inverted fluorescence microscope equipped with a CMOS camera (Zyla4.2, Andor).

[2] = target: Smoothened (Mus musculus, UniProt P56726); conditions: previously reported, Chen et al., Proc. Natl. Acad Sci, 99: 14071-14076, 2002; cited from earlier work
[3] = test system: hedgehog signal downstream gene Gli in NIH-3T3 cells; test: Hedgehog signal assay in NIH-3T3 cells (Gli expression, quantitative PCR); format: cell-based
Protocol: (§4) NIH-3T3 cells were allowed to grow in DMEM (supplemented with 10% FBS, glutamine, penicillin, and streptomycin). In order to perform a hedgehog signal assay, the cells that had been cultured to reach confluent were cultured in a starvation-induced medium (DMEM; serum not added) overnight, so that the cells were in a starved state. Subsequently, the medium was exchanged with a starvation-induced medium supplemented with SAG, caged SAG, SANT75, caged SANT75, or the like. Using a halogen lamp, the cells were irradiated with a light for 15 minutes. Thereafter, total RNA was extracted from the NIH-3T3 cells cultured for 6 hours, and was then subjected to real-time PCR.
(§5) Total RNA was extracted using TriPure Isolation Reagent kit (Roche Diagnosis). cDNA was synthesized using SuperScript (registered trademark) IV Reverse Transcriptase (Invitrogen). Quantitative PCR was carried out using KAPA SYBR Fast qPCR kit (KAPA Biosystems). The data were standardized with respect to the expression level of GAPDH.

[4] = test system: hedgehog signals (Glil expression); test: Inhibition of SAG-induced hedgehog signals (Glil expression) by antagonist; format: cell-based; conditions: SAG 100 nM and SANT75 1 μM simultaneously
Protocol: as §4, §5

[5] = test system: ventral cerebrum markers NKX2.1 and MASH1 in cerebral organoid; test: Expression of ventral cerebrum markers in cerebral organoids, quantitative PCR; format: cell-based, human
Protocol: as §1, §2, §3
Three types of organoids cultured under individual conditions were recovered at 11 days after initiation of the culture, and were then subjected to qPCR. Each organoid was embedded in a Matrigel droplet (25 μl), and was then transferred on a 60-mm dish containing a brain differentiation medium (DMEM/F12 : Neurobasal™ media=1:1, which was supplemented with a 0.5% N2 supplement, a 1% GlutaMax supplement, 0.5% NEAA, 1% penicillin-streptomycin, insulin, and a 1% B27 supplement (not containing vitamin A)). At 15 days after initiation of the culture, the medium was exchanged with a brain differentiation medium supplemented with a vitamin A-containing B27 supplement, and was then transferred into an Orbital Shaker. Thereafter, the medium was exchanged with a fresh one, every 4 or 5 days, until 30 days after initiation of the culture.
as §5

[6] = Photolysis kinetic analysis of caged SAG using HPLC (365 nm light); format: physicochemical; conditions: 100 μM caged SAG in PBS:DMSO=9:1, light at 365 nm, 0 to 8 J/cm^2, HPLC
Protocol: 100 μM Caged SAG (PBS:DMSO=9:1) was irradiated with a light at a wavelength of 365 nm at an energy intensity of 0 to 8 J/cm^2. Each sample was analyzed according to HPLC (5-C18-AR-II column, at 0 min, CH3CN:H2O=5:95, at 8 min, 30:70, and then at 15 min, 0:100). Each fraction obtained by HPLC was recovered, and was then analyzed according to ESI spectrometry.

Sequence of Smoothened (P56726 33-793): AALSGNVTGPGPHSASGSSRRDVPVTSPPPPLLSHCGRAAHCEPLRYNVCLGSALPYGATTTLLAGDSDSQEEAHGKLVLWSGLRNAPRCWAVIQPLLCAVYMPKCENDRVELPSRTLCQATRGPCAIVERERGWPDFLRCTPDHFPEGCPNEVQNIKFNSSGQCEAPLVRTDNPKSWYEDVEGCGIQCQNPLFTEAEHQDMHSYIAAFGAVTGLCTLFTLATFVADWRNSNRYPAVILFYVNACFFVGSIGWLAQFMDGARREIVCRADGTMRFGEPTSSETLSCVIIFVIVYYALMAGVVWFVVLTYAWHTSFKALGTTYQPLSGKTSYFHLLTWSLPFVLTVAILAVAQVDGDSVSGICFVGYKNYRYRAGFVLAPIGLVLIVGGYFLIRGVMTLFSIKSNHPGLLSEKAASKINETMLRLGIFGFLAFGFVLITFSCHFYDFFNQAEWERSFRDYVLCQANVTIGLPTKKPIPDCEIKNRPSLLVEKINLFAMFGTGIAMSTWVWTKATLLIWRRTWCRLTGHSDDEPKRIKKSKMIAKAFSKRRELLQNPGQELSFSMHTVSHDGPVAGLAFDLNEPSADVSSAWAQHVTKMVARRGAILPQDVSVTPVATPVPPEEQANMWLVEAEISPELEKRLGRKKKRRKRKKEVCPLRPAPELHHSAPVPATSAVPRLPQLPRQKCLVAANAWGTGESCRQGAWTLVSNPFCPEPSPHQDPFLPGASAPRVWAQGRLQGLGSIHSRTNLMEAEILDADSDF

For `CNC1CCC(N(Cc2cccc(-c3ccncc3)c2)C(=O)c2sc3ccccc3c2Cl)CC1` (centres unmarked) [SAG, reference compound], the “expression levels of NKX2.1 and MASH1” value ([1]; cultured in the presence of SAG (SAG(+))) is given as “increased”, the EC50 [2] is given as 3 nM and the “activation (expression level of Gli)” value ([3]; SAG at 1 nM) is given as “only a little activation”. The “activation (expression level of Gli)” value ([3]; SAG at 10 nM) was “activation was observed” and the “expression level of Gli” value ([3]; cells cultured in the presence of SAG) was “increased”.
With `CCCNC1CCC(N(Cc2cccc(-c3ccncc3)c2)C(=O)c2sc3ccccc3c2Cl)CC1` (centres unmarked) [SANT75] the “inhibition of hedgehog signals (expression level of Glil)” value [4] was “competitive inhibition”.
With `COc1cc(C(C)OC(=O)N(C)C2CCC(N(Cc3cccc(-c4ccncc4)c3)C(=O)c3sc4ccccc4c3Cl)CC2)c([N+](=O)[O-])cc1OCCCC(=O)O` (centres unmarked) [caged SAG] the “expression levels of NKX2.1 and MASH1” value ([1]; caged SAG after completion of light irradiation (100 nM)) was “increased”, the “expression levels of NKX2.1 and MASH1” value ([1]; cerebral organoid cultured in the presence of caged SAG irradiated with a light) was “increased” and the “expression level of Gli” value ([3]; 100 nM caged SAG, cells irradiated with a light) was “increased”. For the same compound, the “expression of Gli” value ([3]; 100 nM caged SAG, cells not irradiated with a light) was “could not be confirmed”, the “activation (expression level of Gli)” value ([3]; caged SAG at 1 nM, with light irradiation) was “only a little activation” and the “activation (expression level of Gli)” value ([3]; caged SAG at 10 nM, with light irradiation) was “activation was observed”. The Smo agonistic activity ([5]; as a result of light irradiation) was “the same level of Smo agonistic activity as that of SAG”, the “expression levels of NKX2.1 and MASH1” value ([5]; caged SAG after completion of light irradiation, 100 nM, quantitative PCR) was “increased” and the “expression of the ventral cerebrum markers (NKX2.1 and MASH1)” value ([5]; caged SAG before light irradiation, 100 nM, quantitative PCR) was “not induced”. The “activity of caged SAG” value ([5]; photodissociable protective group bound, without light irradiation) was “suppressed” and the “energy intensity at which photolysis was almost completed” value [6] was 2-4 J/cn^2.
